Experimental findings from ChEMBL document CHEMBL1132563, “Three-dimensional quantitative structure-activity relationship of interleukin 1-beta converting enzyme inhibitors: A comparative molecular field analysis study” (J Med Chem, 1999) are described below.

This assay addresses T1, Caspase-1 (Homo sapiens) (UniProt P29466).
T1 sequence (whole entry): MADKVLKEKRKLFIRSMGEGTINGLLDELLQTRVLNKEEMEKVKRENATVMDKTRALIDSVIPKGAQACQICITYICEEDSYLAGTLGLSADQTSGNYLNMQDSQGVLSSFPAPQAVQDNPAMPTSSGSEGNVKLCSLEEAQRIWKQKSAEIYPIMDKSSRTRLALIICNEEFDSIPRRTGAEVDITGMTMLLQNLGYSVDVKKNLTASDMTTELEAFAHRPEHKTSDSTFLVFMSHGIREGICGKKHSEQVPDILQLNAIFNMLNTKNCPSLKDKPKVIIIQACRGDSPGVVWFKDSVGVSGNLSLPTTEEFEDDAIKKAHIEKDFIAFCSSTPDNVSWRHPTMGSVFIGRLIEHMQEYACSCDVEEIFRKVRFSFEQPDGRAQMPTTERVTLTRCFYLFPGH
Description: Inhibitory activity against human IL-1 beta converting enzyme from monocytic THP-1 cell line, activity expressed as the logarithm of the second order rate constant for inactivation. The class given is cell-based.
In turn, `CC(C)[C@H](NC(=O)OCc1ccccc1)C(=O)N[C@@H](C)C(=O)N[C@@H](CC(=O)O)C(=O)COP(=O)(Oc1ccc(Cl)cc1)Oc1ccc(Cl)cc1` displayed an Activity of 5.36.
Under `CC(C)[C@H](NC(=O)OCc1ccccc1)C(=O)N[C@@H](C)C(=O)N[C@@H](CC(=O)O)C(=O)COc1cc(C(F)(F)F)nn1-c1ccccc1` stands 5.45.
For `CC(C)[C@@H](C(=O)N[C@@H](C)C(=O)N[C@@H](CC(=O)O)C(=O)COc1cc(C(F)(F)F)nn1-c1ccccc1)N(C)C(=O)OCc1ccccc1` the value was 3.93; for `C[C@H](NC(=O)[C@H](Cc1ccccc1)NC(=O)OCc1ccccc1)C(=O)COC(=O)c1c(Cl)cccc1Cl`, 2.7.
For `C=CCOC(=O)N[C@@H](CC(=O)O)C(=O)COC(=O)c1c(O)cccc1O` the value was 3.43.
Take `CC(C)[C@H](NC(=O)CCc1ccccc1)C(=O)N[C@@H](C)C(=O)N[C@@H](CC(=O)O)C(=O)COC(=O)c1ccc([N+](=O)[O-])cc1`: the Activity was determined as 6.11.
Under `C[C@H](NC(=O)[C@H](Cc1ccccc1)NC(=O)OCc1ccccc1)C(=O)COP(=O)(Oc1ccccc1)Oc1ccccc1` stands 2.7; under `O=C(O)CC(NC(=O)Cn1c(-c2ccc(F)cc2)ncc(NC(=O)OCc2ccccc2)c1=O)C(=O)COc1cc(C(F)(F)F)nn1-c1ccccc1` (centres undefined), 5.2.
As to `CC(C)C[C@H](NC(=O)OCc1ccccc1)C(=O)N[C@@H](Cc1ccccc1)C(=O)COP(=O)(Oc1ccccc1)Oc1ccccc1`, the Activity came out at 2.7.
For `O=C(O)C[C@H](NC(=O)OCc1ccccc1)C(=O)COc1cc(C(F)(F)F)nn1-c1ccccc1` the value was 4.04.
Under `C=CCOC(=O)N[C@@H](CC(=O)O)C(=O)COC(=O)c1c(F)c(F)c(F)c(F)c1F` stands 2.99.
Take `O=C(O)CC(NC(=O)Cn1c(-c2ccc(F)cc2)ncc(NC(=O)NCc2ccccc2)c1=O)C(=O)COC(=O)c1c(Cl)cccc1Cl` (centres undefined): the Activity stood at 5.17.
For `CC(C)[C@H](NC(=O)CCc1ccccc1)C(=O)N[C@@H](C)C(=O)N[C@@H](CC(=O)O)C(=O)COC(=O)c1ccccc1` the value was 5.45; for `O=C(O)CC(NC(=O)Cn1c(-c2ccc(F)cc2)ncc(NC(=O)OCc2ccccc2)c1=O)C(=O)COP(=O)(Oc1ccccc1)Oc1ccccc1` (centres undefined), 5.16; for `C=CCOC(=O)N[C@@H](CC(=O)O)C(=O)COC(=O)c1c(C)cccc1C`, 2.91.
Under `Cc1cccc(C)c1C(=O)OCC(=O)[C@H](CC(=O)O)NC(=O)[C@H](C)NC(=O)[C@@H](NC(=O)CCc1ccccc1)C(C)C` stands 6.08; under `O=C(O)CC(NC(=O)Cn1c(-c2ccc(F)cc2)ncc(NC(=O)OCc2ccccc2)c1=O)C(=O)COC(=O)c1c(Cl)cccc1Cl` (centres undefined), 5.43; under `CC(=O)N[C@@H](Cc1ccc(O)cc1)C(=O)N[C@H](C(=O)N[C@@H](C)C(=O)N[C@@H](CC(=O)O)C(=O)COC(=O)c1c(C)cccc1C)C(C)C`, 6.04.
Under `CC(C)[C@H](NC(=O)OCc1ccccc1)C(=O)N[C@@H](C)C(=O)N[C@@H](CC(=O)O)C(=O)COC(=O)c1c(Cl)cccc1Cl` stands 5.61; under `O=C(O)C[C@H](NC(=O)OCc1ccccc1)C(=O)COC(=O)c1c(Cl)cccc1Cl`, 3.85.
The compound `C[C@H](NC(=O)[C@H](Cc1ccccc1)NC(=O)OCc1ccccc1)C(=O)COc1cc(C(F)(F)F)nn1-c1ccccc1` registered an Activity of 2.7.
Consider `CC(=O)N[C@@H](Cc1ccc(O)cc1)C(=O)N[C@H](C(=O)N[C@@H](C)C(=O)N[C@@H](CC(=O)O)C(=O)COC(=O)c1c(C(F)(F)F)cccc1C(F)(F)F)C(C)C`, for which the Activity turned out to be 5.98.
Under `O=C(O)CC(NC(=O)Cn1c(-c2cccs2)ncc(NC(=O)OCc2ccccc2)c1=O)C(=O)COC(=O)c1c(Cl)cccc1Cl` (centres undefined) stands 5.43; under `CC(C)[C@H](NC(=O)OCc1ccccc1)C(=O)N[C@@H](C)C(=O)N(C)[C@@H](CC(=O)O)C(=O)COc1cc(C(F)(F)F)nn1-c1ccccc1`, 2.48.
For `CC(C)[C@H](NC(=O)OCc1ccccc1)C(=O)N[C@@H](CC(=O)O)C(=O)COc1cc(C(F)(F)F)nn1-c1ccccc1` the value was 4.3.
For `CC(C)[C@H](NC(=O)CCc1ccccc1)C(=O)N[C@@H](C)C(=O)N[C@@H](CC(=O)O)C(=O)COC(=O)c1c(O)cccc1O` the value was 5.85.
`O=C(O)CC(NC(=O)Cn1c(-c2cccnc2)ncc(NC(=O)OCc2ccccc2)c1=O)C(=O)COc1cc(C(F)(F)F)nn1-c1ccccc1` (centres undefined) registered an Activity of 5.16.
For `CC(C)[C@H](NC(=O)OCc1ccccc1)C(=O)N[C@@H](CC(=O)O)C(=O)COP(=O)(Oc1ccc(Cl)cc1)Oc1ccc(Cl)cc1` the value was 4.89.
`CN(C)CCCCCC(=O)Nc1cnc(-c2ccc(F)cc2)n(CC(=O)NC(CC(=O)O)C(=O)COC(=O)c2c(Cl)cccc2Cl)c1=O` (centres undefined) had an Activity of 4.95.
For `CC(C)[C@H](NC(=O)OCc1ccccc1)C(=O)N1CCCCC1C(=O)N[C@H](CC(=O)O)C(=O)COc1cc(C(F)(F)F)nn1-c1ccccc1` (some centres undefined) the value was 5.43.
Under `C=CCOC(=O)N[C@@H](CC(=O)O)C(=O)COC(=O)c1ccc([N+](=O)[O-])cc1` stands 1.79; under `Cc1ncc(NC(=O)OCc2ccccc2)c(=O)n1CC(=O)NC(CC(=O)O)C(=O)COc1cc(C(F)(F)F)nn1-c1ccccc1` (centres undefined), 4.98.
Under `O=C(O)CC(NC(=O)Cn1c(-c2ccc(F)cc2)ncc(NC(=O)c2ccco2)c1=O)C(=O)COC(=O)c1c(Cl)cccc1Cl` (centres undefined) stands 4.66; under `O=C(O)CC(NC(=O)Cn1c(-c2ccc(F)cc2)ncc(NS(=O)(=O)c2ccccc2)c1=O)C(=O)COC(=O)c1c(Cl)cccc1Cl` (centres undefined), 4.95; under `CC(C)[C@H](NC(=O)[C@@H]1CCCN1C(=O)OCc1ccccc1)C(=O)N[C@@H](CC(=O)O)C(=O)COc1cc(C(F)(F)F)nn1-c1ccccc1`, 2.48.
For `CC(C)[C@H](NC(=O)OCc1ccccc1)C(=O)N[C@@H](CC(=O)O)C(=O)COP(=O)(Oc1ccccc1)Oc1ccccc1`, the Activity was determined as 4.7.
For `Nc1cnc(-c2ccc(F)cc2)n(CC(=O)NC(CC(=O)O)C(=O)COC(=O)c2c(Cl)cccc2Cl)c1=O` (centres undefined) the value was 4.56; for `CC(C)[C@H](NC(=O)OCc1ccccc1)C(=O)N(C)[C@@H](C)C(=O)N[C@@H](CC(=O)O)C(=O)COc1cc(C(F)(F)F)nn1-c1ccccc1`, 5.37; for `CC(C)[C@H](NC(=O)CCc1ccccc1)C(=O)N[C@@H](C)C(=O)N[C@@H](CC(=O)O)C(=O)COC(=O)c1c(F)c(F)c(F)c(F)c1F`, 6.04.
Under `CC(C)[C@H](NC(=O)CCc1ccccc1)C(=O)N[C@@H](C)C(=O)N[C@@H](CC(=O)O)C(=O)COC(=O)c1c(C(F)(F)F)cccc1C(F)(F)F` stands 5.95.
For `O=C(O)C[C@H](NC(=O)OCc1ccccc1)C(=O)COP(=O)(Oc1ccccc1)Oc1ccccc1` the value was 4.07; for `CC(C)[C@H](NC(=O)OCc1ccccc1)C(=O)N1CCC[C@H]1C(=O)N[C@@H](CC(=O)O)C(=O)COc1cc(C(F)(F)F)nn1-c1ccccc1`, 5.06; for `CC(C)[C@H](NC(=O)OCc1ccccc1)C(=O)N[C@@H](C)C(=O)N[C@@H](CC(=O)O)C(=O)COP(=O)(Oc1ccccc1)Oc1ccccc1`, 5.07.
`C=CCOC(=O)N[C@@H](CC(=O)O)C(=O)COC(=O)c1c(C(F)(F)F)cccc1C(F)(F)F` gave an Activity of 3.72.
